Results as given in PMC5896373 (Molecular Pharmacology, 2018).

Tests used:
P2X7R point mutant Y93A = biological target: T1, P2X7R point mutant Y93A (Homo sapiens, UniProt Q99572, I21V/M24R/N16P/N25R/Q22R/R20V/S23N/T19I/Y26L/Y93A); experiment: Two-electrode voltage clamp of ATP-evoked currents in Xenopus oocytes; format: cell-based; details: EC90 ATP, mean ± S.E.M.
T1 construct: expressed in transfected cells; host or cells: Xenopus laevis oocytes (cRNA injection)
Procedure: (§1) Injected oocytes were stored at 16°C in ND96 buffer [in millimolar concentrations, NaCl 96, KCl 2, CaCl2 1.8, MgCl2 1, sodium pyruvate 5, and HEPES 5 (pH 7.6) supplemented with 50 μg/ml gentamycin and 50 μg/ml tetracycline]. Three to seven days postinjection two-electrode voltage clamp recordings were made from oocytes bathed in divalent-free ND96 buffer (in millimolar concentrations, NaCl 96, KCl 2, sodium pyruvate 5, HEPES 5, and 0.1 flufenamic acid, pH 7.6). Oocytes were voltage clamped at a holding potential of −60 mV with a GeneClamp500B amplifier (Molecular Devices).
(§2) Inhibition by the antagonists was expressed as the percentage of the peak current amplitude of an EC90 concentration of ATP recorded before the application of antagonist (ATP gave reproducible responses to ATP in the absence of antagonist). Inhibition curves were fitted with the Hill equation (variable slope) using GraphPad Prism 6 (GraphPad Software, San Diego, CA). […] Individual concentration-response curves were generated for individual experiments, and statistical analysis was carried out on the data generated. […] Data are shown as mean ± S.E.M. In all cases n ≥ 3 for all data points.

P2X7R point mutant F88A = biological target: T2, P2X7R point mutant F88A (Homo sapiens, UniProt Q99572, F88A/I21V/M24R/N16P/N25R/Q22R/R20V/S23N/T19I/Y26L); experiment: as above; format: cell-based; details: EC90 ATP, mean ± S.E.M.
T2 construct: expressed in transfected cells; host or cells: Xenopus laevis oocytes (cRNA injection)
T2 sequence (Q99572 whole entry N16P/T19I/R20V/I21V/Q22R/S23N/M24R/N25R/Y26L/F88A): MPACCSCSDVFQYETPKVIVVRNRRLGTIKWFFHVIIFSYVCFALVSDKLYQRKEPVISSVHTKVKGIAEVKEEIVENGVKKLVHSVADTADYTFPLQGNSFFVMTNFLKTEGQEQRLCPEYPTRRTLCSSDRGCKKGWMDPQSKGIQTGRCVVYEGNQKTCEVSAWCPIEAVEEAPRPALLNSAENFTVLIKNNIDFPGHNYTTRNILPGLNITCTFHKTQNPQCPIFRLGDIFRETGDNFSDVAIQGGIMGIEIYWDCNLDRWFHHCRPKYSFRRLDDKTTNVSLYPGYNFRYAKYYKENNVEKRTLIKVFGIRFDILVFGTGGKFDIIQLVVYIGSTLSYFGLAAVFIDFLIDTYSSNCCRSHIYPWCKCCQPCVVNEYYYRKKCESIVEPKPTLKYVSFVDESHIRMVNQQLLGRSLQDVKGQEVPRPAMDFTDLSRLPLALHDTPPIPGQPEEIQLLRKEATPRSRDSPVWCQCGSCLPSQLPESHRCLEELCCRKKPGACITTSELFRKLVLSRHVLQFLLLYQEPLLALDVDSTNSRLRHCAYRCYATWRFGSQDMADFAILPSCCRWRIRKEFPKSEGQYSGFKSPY
Procedure: (§3) Additional point mutants were made using the QuikChange mutagenesis kit (Stratagene California, La Jolla, CA). The production of the correct mutations and absence of coding errors was determined by DNA sequencing (Automated ABI Sequencing Service, University of Leicester, UK). cRNA was generated for the mutants and 50 nl (50 ng) was injected into manually defoliculated stage V Xenopus laevis oocytes using an Inject+Matic microinjector (J.A. Gabay, Inject+Matic, Geneva, Switzerland). Injected oocytes were stored at 16°C in ND96 buffer [in millimolar concentrations, NaCl 96, KCl 2, CaCl2 1.8, MgCl2 1, sodium pyruvate 5, and HEPES 5 (pH 7.6) supplemented with 50 μg/ml gentamycin and 50 μg/ml tetracycline]. Three to seven days postinjection two-electrode voltage clamp recordings were made from oocytes bathed in divalent-free ND96 buffer (in millimolar concentrations, NaCl 96, KCl 2, sodium pyruvate 5, HEPES 5, and 0.1 flufenamic acid, pH 7.6). Oocytes were voltage clamped at a holding potential of −60 mV with a GeneClamp500B amplifier (Molecular Devices).
(§4) Inhibition by the antagonists was expressed as the percentage of the peak current amplitude of an EC90 concentration of ATP recorded before the application of antagonist (ATP gave reproducible responses to ATP in the absence of antagonist). […]

[1] = biological target: T3, chimeric P2X7/1 receptor 112–118 (Homo sapiens, UniProt Q99572, E112P/E115T/G113K/I21V/L118Y/M24R/N16P/N25R/Q22R/R117G/R20V/S23N/T19I/Y26L); experiment: cell-based; format: cell-based
T3 construct: expressed in transfected cells; host or cells: Xenopus laevis oocytes (cRNA injection)
T3 sequence (Q99572 whole entry N16P/T19I/R20V/I21V/Q22R/S23N/M24R/N25R/Y26L/E112P/G113K/E115T/R117G/L118Y): as the sequence (Q99572 whole entry N16P/T19I/R20V/I21V/Q22R/S23N/M24R/N25R/Y26L/F88A) above, with A88F, E112P, G113K, E115T, R117G, L118Y counted along it
Procedure: as §3, §2

P2X7R point mutant V304C = biological target: T4, P2X7R point mutant V304C (Homo sapiens, UniProt Q99572, I21V/M24R/N16P/N25R/Q22R/R20V/S23N/T19I/V304C/Y26L); experiment: Two-electrode voltage clamp of ATP-evoked currents in Xenopus oocytes; format: cell-based; details: EC90 ATP, mean ± S.E.M.
T4 construct: expressed in transfected cells; host or cells: Xenopus laevis oocytes (cRNA injection)
T4 sequence (Q99572 whole entry N16P/T19I/R20V/I21V/Q22R/S23N/M24R/N25R/Y26L/V304C): as the sequence (Q99572 whole entry N16P/T19I/R20V/I21V/Q22R/S23N/M24R/N25R/Y26L/F88A) above, with A88F, V304C counted along it
Procedure: as §1, §2

P2X7R point mutant T94V = biological target: T5, P2X7R point mutant T94V (Homo sapiens, UniProt Q99572, I21V/M24R/N16P/N25R/Q22R/R20V/S23N/T19I/T94V/Y26L); experiment: as above; format: cell-based; details: EC90 ATP, mean ± S.E.M.
T5 construct: expressed in transfected cells; host or cells: Xenopus laevis oocytes (cRNA injection)
T5 sequence (Q99572 whole entry N16P/T19I/R20V/I21V/Q22R/S23N/M24R/N25R/Y26L/T94V): as the sequence (Q99572 whole entry N16P/T19I/R20V/I21V/Q22R/S23N/M24R/N25R/Y26L/F88A) above, with A88F, T94V counted along it
Procedure: as §3, §4

P2X7R point mutant K306C = biological target: T6, P2X7R point mutant K306C (Homo sapiens, UniProt Q99572, I21V/K306C/M24R/N16P/N25R/Q22R/R20V/S23N/T19I/Y26L); experiment: as above; format: cell-based; details: EC90 ATP, mean ± S.E.M.
T6 construct: expressed in transfected cells; host or cells: Xenopus laevis oocytes (cRNA injection)
T6 sequence (Q99572 whole entry N16P/T19I/R20V/I21V/Q22R/S23N/M24R/N25R/Y26L/K306C): as the sequence (Q99572 whole entry N16P/T19I/R20V/I21V/Q22R/S23N/M24R/N25R/Y26L/F88A) above, with A88F, K306C counted along it
Procedure: as §1, §2

P2X7R point mutant F103A = biological target: T7, P2X7R point mutant F103A (Homo sapiens, UniProt Q99572, F103A/I21V/M24R/N16P/N25R/Q22R/R20V/S23N/T19I/Y26L); experiment: cell-based
T7 construct: expressed in transfected cells; host or cells: Xenopus laevis oocytes (cRNA injection)
T7 sequence (Q99572 whole entry N16P/T19I/R20V/I21V/Q22R/S23N/M24R/N25R/Y26L/F103A): as the sequence (Q99572 whole entry N16P/T19I/R20V/I21V/Q22R/S23N/M24R/N25R/Y26L/F88A) above, with A88F, F103A counted along it
Procedure: as §1
Inhibition by the antagonists was expressed as the percentage of the peak current amplitude of an EC90 concentration of ATP recorded before the application of antagonist (ATP gave reproducible responses to ATP in the absence of antagonist). Inhibition curves were fitted with the Hill equation (variable slope) using GraphPad Prism 6 (GraphPad Software, San Diego, CA). […] Individual concentration-response curves were generated for individual experiments, and statistical analysis was carried out on the data generated. When shown in figures, the inhibition curves are fitted to the mean normalized data. […] Data are shown as mean ± S.E.M. In all cases n ≥ 3 for all data points.

P2X7R point mutant F88W = biological target: T8, P2X7R point mutant F88W (Homo sapiens, UniProt Q99572, F88W/I21V/M24R/N16P/N25R/Q22R/R20V/S23N/T19I/Y26L); experiment: Two-electrode voltage clamp of ATP-evoked currents in Xenopus oocytes; format: cell-based; details: EC90 ATP, mean ± S.E.M.
T8 construct: expressed in transfected cells; host or cells: Xenopus laevis oocytes (cRNA injection)
T8 sequence (Q99572 whole entry N16P/T19I/R20V/I21V/Q22R/S23N/M24R/N25R/Y26L/F88W): as the sequence (Q99572 whole entry N16P/T19I/R20V/I21V/Q22R/S23N/M24R/N25R/Y26L/F88A) above, with A88W counted along it
Procedure: as §3, §4

P2X7R point mutant Y295A = biological target: T9, P2X7R point mutant Y295A (Homo sapiens, UniProt Q99572, I21V/M24R/N16P/N25R/Q22R/R20V/S23N/T19I/Y26L/Y295A); experiment: as above; format: cell-based; details: EC90 ATP, mean ± S.E.M.
T9 construct: expressed in transfected cells; host or cells: Xenopus laevis oocytes (cRNA injection)
T9 sequence (Q99572 whole entry N16P/T19I/R20V/I21V/Q22R/S23N/M24R/N25R/Y26L/Y295A): as the sequence (Q99572 whole entry N16P/T19I/R20V/I21V/Q22R/S23N/M24R/N25R/Y26L/F88A) above, with A88F, Y295A counted along it
Procedure: as §3, §4

[2] = biological target: T10, chimeric P2X7/1 receptor 279–285 (left flipper) (Homo sapiens, UniProt Q99572, DEL279-281/I21V/M24R/N16P/N25R/N284E/Q22R/R20V/S23N/T19I/T282Y/T283E/V285K/Y26L); experiment: as above; format: cell-based; details: chimera 279–285; for IC50: inhibition of EC90 ATP response
T10 construct: expressed in transfected cells; host or cells: Xenopus laevis oocytes (cRNA injection)
T10 sequence (Q99572 with tags, fused parts or gaps N16P/T19I/R20V/I21V/Q22R/S23N/M24R/N25R/Y26L/DEL279-281/T282Y/T283E/N284E/V285K): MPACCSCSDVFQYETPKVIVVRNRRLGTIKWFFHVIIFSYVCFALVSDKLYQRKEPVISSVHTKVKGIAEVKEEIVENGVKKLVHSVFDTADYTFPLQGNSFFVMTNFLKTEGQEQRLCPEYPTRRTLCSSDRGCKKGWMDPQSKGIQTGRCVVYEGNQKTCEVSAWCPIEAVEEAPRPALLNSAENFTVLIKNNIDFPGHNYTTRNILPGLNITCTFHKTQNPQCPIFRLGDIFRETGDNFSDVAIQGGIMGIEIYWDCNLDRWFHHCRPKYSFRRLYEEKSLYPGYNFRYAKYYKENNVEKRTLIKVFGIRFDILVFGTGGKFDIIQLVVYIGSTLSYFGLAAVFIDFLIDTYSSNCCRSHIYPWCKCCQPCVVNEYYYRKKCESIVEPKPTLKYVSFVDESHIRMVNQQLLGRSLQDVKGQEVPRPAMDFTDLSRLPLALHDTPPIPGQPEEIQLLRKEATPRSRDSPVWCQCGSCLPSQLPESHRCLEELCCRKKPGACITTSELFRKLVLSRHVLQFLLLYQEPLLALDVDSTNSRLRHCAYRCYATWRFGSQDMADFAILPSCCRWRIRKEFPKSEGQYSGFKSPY
Procedure: The production of the correct mutations and absence of coding errors was determined by DNA sequencing (Automated ABI Sequencing Service, University of Leicester, UK). cRNA was generated for the mutants and 50 nl (50 ng) was injected into manually defoliculated stage V Xenopus laevis oocytes using an Inject+Matic microinjector (J.A. Gabay, Inject+Matic, Geneva, Switzerland). Injected oocytes were stored at 16°C in ND96 buffer [in millimolar concentrations, NaCl 96, KCl 2, CaCl2 1.8, MgCl2 1, sodium pyruvate 5, and HEPES 5 (pH 7.6) supplemented with 50 μg/ml gentamycin and 50 μg/ml tetracycline]. Three to seven days postinjection two-electrode voltage clamp recordings were made from oocytes bathed in divalent-free ND96 buffer (in millimolar concentrations, NaCl 96, KCl 2, sodium pyruvate 5, HEPES 5, and 0.1 flufenamic acid, pH 7.6). Oocytes were voltage clamped at a holding potential of −60 mV with a GeneClamp500B amplifier (Molecular Devices).
as §2

P2X7R point mutant Y299C = biological target: T11, P2X7R point mutant Y299C (Homo sapiens, UniProt Q99572, I21V/M24R/N16P/N25R/Q22R/R20V/S23N/T19I/Y26L/Y299C); experiment: as above; format: cell-based; details: EC90 ATP, mean ± S.E.M.
T11 construct: expressed in transfected cells; host or cells: Xenopus laevis oocytes (cRNA injection)
T11 sequence (Q99572 whole entry N16P/T19I/R20V/I21V/Q22R/S23N/M24R/N25R/Y26L/Y299C): as the sequence (Q99572 whole entry N16P/T19I/R20V/I21V/Q22R/S23N/M24R/N25R/Y26L/F88A) above, with A88F, Y299C counted along it
Procedure: as §3, §4

P2X7R point mutant H85P = biological target: T12, P2X7R point mutant H85P (Homo sapiens, UniProt Q99572, H85P/I21V/M24R/N16P/N25R/Q22R/R20V/S23N/T19I/Y26L); experiment: as above; format: cell-based; details: EC90 ATP, mean ± S.E.M.
T12 construct: expressed in transfected cells; host or cells: Xenopus laevis oocytes (cRNA injection)
T12 sequence (Q99572 whole entry N16P/T19I/R20V/I21V/Q22R/S23N/M24R/N25R/Y26L/H85P): as the sequence (Q99572 whole entry N16P/T19I/R20V/I21V/Q22R/S23N/M24R/N25R/Y26L/F88A) above, with H85P, A88F counted along it
Procedure: as §3, §4

[3] = biological target: T13, chimeric P2X7/1 receptor 170–177 (Homo sapiens, UniProt Q99572, A172V/A176I/E174D/E175D/I170V/I21V/M24R/N16P/N25R/Q22R/R20V/S23N/T19I/V173D/Y26L); experiment: as above; format: cell-based
T13 construct: expressed in transfected cells; host or cells: Xenopus laevis oocytes (cRNA injection)
T13 sequence (Q99572 1-595 N16P/T19I/R20V/I21V/Q22R/S23N/M24R/N25R/Y26L/I170V/A172V/V173D/E174D/E175D/A176I): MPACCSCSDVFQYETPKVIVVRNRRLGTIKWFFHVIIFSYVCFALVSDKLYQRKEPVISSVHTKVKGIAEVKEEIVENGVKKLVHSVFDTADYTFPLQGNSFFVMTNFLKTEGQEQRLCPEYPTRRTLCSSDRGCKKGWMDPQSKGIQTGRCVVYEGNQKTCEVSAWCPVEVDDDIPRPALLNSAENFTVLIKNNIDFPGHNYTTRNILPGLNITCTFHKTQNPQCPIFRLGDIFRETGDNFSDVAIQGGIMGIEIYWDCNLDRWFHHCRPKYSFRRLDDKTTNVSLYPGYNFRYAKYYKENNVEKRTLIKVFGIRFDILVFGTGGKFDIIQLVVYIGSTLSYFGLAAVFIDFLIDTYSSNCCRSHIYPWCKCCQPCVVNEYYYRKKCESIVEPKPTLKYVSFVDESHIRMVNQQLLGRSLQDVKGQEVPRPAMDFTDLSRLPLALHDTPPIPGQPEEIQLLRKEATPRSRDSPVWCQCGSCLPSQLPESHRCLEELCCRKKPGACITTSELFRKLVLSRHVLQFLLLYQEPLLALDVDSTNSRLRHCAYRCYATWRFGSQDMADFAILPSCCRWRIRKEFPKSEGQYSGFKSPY
Procedure: as §3, §2

T1 sequence (Q99572 whole entry N16P/T19I/R20V/I21V/Q22R/S23N/M24R/N25R/Y26L/Y93A): as the sequence (Q99572 whole entry N16P/T19I/R20V/I21V/Q22R/S23N/M24R/N25R/Y26L/F88A) above, with A88F, Y93A counted along it

`Cl.Clc1cccc(-c2nnnn2Cc2cccnc2)c1Cl.O` [A438079, 3-(5-(2,3-dichlorophenyl)-1H-tetrazol-1-yl)methyl pyridine hydrochloride hydrate] was tested, and the IC50 (P2X7R point mutant Y93A) was 3.98 µM, the IC50 (P2X7R point mutant F88A) was over 100 µM and the IC50 [1] was 3.16 µM. For the same compound, the IC50 (P2X7R point mutant V304C) was 0.0631 µM, the IC50 (P2X7R point mutant T94V) was over 100 µM and the IC50 (P2X7R point mutant K306C) was 1.58 µM. For the same compound, the IC50 (P2X7R point mutant F103A) was over 100 µM, the IC50 (P2X7R point mutant F88W) was 3.16 µM and the IC50 (P2X7R point mutant Y295A) was 2 µM. It also gave an IC50 [2] of 31.6 µM, an IC50 (P2X7R point mutant Y299C) of 0.251 µM and an IC50 (P2X7R point mutant H85P) of 1 µM. For the same compound, the IC50 [3] was 0.631 µM.

Compound `COc1ccc(CC(=O)NC(N=C(NC#N)Nc2cccc3ncccc23)C(C)(C)C)cc1OC` (stereo not shown) [A740003, N-[1-[[(cyanoamino)(5-quinolinylamino)methylene]amino]-2,2-dimethylpropyl]-3,4-dimethoxybenzeneacetamide] has an IC50 (P2X7R point mutant Y93A) of 0.1 µM, an IC50 (P2X7R point mutant F88A) of 5.01 µM and an IC50 [1] of 0.251 µM. The IC50 (P2X7R point mutant V304C) was 0.1 µM, the IC50 (P2X7R point mutant T94V) was 0.398 µM and the IC50 (P2X7R point mutant K306C) was 0.316 µM. For the same compound, the IC50 (P2X7R point mutant F103A) was 0.631 µM, the IC50 (P2X7R point mutant F88W) was 0.158 µM and the IC50 (P2X7R point mutant Y295A) was 0.158 µM. For the same compound, the “fold decrease in antagonist sensitivity relative to P2X7-2Nβ” value [2] was about 9 fold, the IC50 [2] was 0.631 µM and the IC50 (P2X7R point mutant Y299C) was 0.1 µM. The IC50 (P2X7R point mutant H85P) was 0.398 µM, the IC50 [3] was 0.0631 µM and the “effect on antagonist potency relative to P2X7-2Nβ” value ([3]; chimera 170–177) was “no effect”.
